What was measured:
[1] = biological target: T1, human Cereblon WT GST-tagged protein (Homo sapiens, UniProt Q96SW2); experiment: CRBN-binding affinity, HTRF (CEREBLON BINDING kit); details: for inhibition at 0.5 µM: read-out: Inhibition Rate at 0.5 µM (%); for inhibition at 2 µM: read-out: Inhibition Rate at 2 µM (%)
T1 construct: purchased CISBIO 64BDCRBNPEH

[2] = system: Human myeloid monocytic leukemia cell (MV-4-11); experiment: Tumor cell proliferation inhibition (CellTiter-Meiluncell luminescent cell viability assay); details: MV4-11, 96 h; for inhibition at 0.01 µM: read-out: Inhibition Rate at 10 nM (%); for inhibition at 0.5 µM: read-out: Inhibition Rate at 500 nM (%)
GSPT1 = experiment: Western blot, degradation of substrate protein in hPBMCs; format: cell-based, Human
CK1α = biological target: T2, CK1α (Homo sapiens, UniProt P48729+Q96SW2); experiment: as above; format: cell-based
T2 construct: effects of the compounds of the present disclosure on the expression of target proteins in cells; endogenous in cells; host or cells: human PBMCs (Milecell Biotechnologies)
T2 sequence (P48729 whole entry): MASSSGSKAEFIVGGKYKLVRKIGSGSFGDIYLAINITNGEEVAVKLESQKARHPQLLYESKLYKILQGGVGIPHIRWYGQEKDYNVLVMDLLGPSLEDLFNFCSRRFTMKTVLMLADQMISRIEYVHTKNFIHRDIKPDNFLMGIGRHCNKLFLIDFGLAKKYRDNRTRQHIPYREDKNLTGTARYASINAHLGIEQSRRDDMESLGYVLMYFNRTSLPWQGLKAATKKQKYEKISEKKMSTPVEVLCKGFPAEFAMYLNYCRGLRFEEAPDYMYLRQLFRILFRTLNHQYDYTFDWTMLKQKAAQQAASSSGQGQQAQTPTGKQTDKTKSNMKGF
T2 sequence (Q96SW2 whole entry): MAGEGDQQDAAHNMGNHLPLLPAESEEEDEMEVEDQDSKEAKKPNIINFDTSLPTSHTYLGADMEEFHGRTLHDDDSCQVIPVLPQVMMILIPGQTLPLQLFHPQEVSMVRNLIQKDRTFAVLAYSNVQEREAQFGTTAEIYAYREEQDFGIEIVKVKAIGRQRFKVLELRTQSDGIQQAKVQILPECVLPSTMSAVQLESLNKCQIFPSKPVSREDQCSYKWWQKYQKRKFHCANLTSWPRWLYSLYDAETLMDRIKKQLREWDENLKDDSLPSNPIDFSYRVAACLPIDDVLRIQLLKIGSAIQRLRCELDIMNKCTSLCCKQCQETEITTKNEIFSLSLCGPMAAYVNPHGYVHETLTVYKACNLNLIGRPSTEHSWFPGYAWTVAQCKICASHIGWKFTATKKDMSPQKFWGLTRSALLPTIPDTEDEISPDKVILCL
T2 sequence (Q16531 whole entry partner): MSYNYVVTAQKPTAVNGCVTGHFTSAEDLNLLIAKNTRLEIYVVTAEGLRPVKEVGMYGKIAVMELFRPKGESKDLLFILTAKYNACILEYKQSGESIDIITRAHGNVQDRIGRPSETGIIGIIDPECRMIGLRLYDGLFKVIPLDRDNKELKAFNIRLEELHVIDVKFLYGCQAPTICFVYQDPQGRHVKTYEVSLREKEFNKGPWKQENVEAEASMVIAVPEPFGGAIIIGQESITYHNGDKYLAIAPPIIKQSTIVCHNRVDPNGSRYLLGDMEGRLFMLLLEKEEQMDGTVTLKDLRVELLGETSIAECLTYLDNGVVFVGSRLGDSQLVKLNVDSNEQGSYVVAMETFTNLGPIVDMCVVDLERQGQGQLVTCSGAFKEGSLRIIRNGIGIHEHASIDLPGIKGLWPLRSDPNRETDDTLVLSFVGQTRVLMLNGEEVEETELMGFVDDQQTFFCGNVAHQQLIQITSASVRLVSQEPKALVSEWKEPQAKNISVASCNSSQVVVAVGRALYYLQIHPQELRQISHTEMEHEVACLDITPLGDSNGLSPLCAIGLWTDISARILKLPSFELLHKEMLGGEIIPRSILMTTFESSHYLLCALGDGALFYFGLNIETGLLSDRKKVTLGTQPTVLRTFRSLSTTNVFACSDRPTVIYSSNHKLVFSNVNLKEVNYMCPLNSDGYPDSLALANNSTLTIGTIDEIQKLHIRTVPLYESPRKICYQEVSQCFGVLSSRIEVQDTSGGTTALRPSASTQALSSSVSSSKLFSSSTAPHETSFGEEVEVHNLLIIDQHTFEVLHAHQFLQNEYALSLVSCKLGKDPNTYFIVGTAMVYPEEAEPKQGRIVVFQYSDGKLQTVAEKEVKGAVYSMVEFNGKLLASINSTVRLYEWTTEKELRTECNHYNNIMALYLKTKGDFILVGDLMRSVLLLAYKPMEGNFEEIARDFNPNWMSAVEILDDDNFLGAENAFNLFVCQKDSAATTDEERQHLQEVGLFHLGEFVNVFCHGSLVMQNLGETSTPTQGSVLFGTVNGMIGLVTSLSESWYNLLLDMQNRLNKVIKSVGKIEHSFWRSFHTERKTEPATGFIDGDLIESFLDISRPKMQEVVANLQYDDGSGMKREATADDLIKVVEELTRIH

IKZF2 = biological target: T3, IKZF2 (Homo sapiens, UniProt Q96SW2+Q9UKS7); experiment: as above; format: cell-based
T3 construct: effects of the compounds of the present disclosure on the expression of target proteins in cells; endogenous in cells; host or cells: human PBMCs (Milecell Biotechnologies)
T3 sequence (Q9UKS7 whole entry): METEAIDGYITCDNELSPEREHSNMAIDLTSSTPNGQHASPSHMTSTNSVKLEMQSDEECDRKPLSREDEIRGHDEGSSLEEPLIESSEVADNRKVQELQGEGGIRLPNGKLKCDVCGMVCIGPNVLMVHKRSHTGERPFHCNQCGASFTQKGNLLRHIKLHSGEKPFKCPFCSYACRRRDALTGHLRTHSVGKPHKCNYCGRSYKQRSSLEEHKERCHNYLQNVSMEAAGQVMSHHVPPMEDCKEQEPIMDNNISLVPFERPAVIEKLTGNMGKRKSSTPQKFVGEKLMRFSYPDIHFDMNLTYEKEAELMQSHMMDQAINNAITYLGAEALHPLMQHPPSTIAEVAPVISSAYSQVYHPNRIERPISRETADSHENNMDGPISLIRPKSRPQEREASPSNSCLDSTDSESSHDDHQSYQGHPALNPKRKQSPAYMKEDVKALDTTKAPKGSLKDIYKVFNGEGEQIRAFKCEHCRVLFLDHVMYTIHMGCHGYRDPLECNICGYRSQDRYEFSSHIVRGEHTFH
T3 sequence (Q96SW2 whole entry): as the sequence (Q96SW2 whole entry) above
T3 sequence (Q16531 whole entry partner): as the sequence (Q16531 whole entry partner) above

IKZF1 = biological target: T4, IKZF1 (Homo sapiens, UniProt Q13422+Q96SW2); experiment: as above; format: cell-based
T4 construct: effects of the compounds of the present disclosure on the expression of target proteins in cells; endogenous in cells; host or cells: human PBMCs (Milecell Biotechnologies)
T4 sequence (Q13422 whole entry): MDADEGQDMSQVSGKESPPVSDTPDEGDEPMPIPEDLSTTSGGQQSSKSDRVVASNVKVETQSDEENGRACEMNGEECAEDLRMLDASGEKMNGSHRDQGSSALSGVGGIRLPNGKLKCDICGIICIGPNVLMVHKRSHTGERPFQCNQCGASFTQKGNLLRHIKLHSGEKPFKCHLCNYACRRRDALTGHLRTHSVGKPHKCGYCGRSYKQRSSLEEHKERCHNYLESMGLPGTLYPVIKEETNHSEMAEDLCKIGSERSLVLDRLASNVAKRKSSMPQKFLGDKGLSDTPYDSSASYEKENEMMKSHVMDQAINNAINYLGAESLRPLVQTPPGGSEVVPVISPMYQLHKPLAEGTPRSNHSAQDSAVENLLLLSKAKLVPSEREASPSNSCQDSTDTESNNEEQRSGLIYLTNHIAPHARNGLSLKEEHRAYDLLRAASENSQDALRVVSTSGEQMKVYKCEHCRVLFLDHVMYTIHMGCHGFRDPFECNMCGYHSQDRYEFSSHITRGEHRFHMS
T4 sequence (Q96SW2 whole entry): as the sequence (Q96SW2 whole entry) above
T4 sequence (Q16531 whole entry partner): as the sequence (Q16531 whole entry partner) above

IKZF3 = biological target: T5, IKZF3 (Homo sapiens, UniProt Q96SW2+Q9UKT9); experiment: as above; format: cell-based
T5 construct: effects of the compounds of the present disclosure on the expression of target proteins in cells; endogenous in cells; host or cells: human PBMCs (Milecell Biotechnologies)
T5 sequence (Q9UKT9 whole entry): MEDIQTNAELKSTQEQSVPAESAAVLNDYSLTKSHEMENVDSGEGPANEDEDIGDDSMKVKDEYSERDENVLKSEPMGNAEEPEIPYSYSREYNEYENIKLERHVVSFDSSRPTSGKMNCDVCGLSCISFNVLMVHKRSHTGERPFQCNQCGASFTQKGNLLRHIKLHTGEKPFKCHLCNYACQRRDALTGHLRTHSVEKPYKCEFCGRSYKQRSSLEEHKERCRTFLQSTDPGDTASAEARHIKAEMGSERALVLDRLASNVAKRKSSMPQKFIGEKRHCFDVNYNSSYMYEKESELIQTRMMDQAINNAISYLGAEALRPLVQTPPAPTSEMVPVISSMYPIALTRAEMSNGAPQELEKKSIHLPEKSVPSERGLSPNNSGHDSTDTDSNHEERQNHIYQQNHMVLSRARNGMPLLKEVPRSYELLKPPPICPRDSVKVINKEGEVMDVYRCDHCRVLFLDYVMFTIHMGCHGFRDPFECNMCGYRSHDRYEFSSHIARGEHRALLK
T5 sequence (Q96SW2 whole entry): as the sequence (Q96SW2 whole entry) above
T5 sequence (Q16531 whole entry partner): as the sequence (Q16531 whole entry partner) above

WEE1 = biological target: T6, WEE1 (Homo sapiens, UniProt P30291+Q96SW2); experiment: as above; format: cell-based
T6 construct: effects of the compounds of the present disclosure on the expression of target proteins in cells; endogenous in cells; host or cells: human PBMCs (Milecell Biotechnologies)
T6 sequence (P30291 whole entry): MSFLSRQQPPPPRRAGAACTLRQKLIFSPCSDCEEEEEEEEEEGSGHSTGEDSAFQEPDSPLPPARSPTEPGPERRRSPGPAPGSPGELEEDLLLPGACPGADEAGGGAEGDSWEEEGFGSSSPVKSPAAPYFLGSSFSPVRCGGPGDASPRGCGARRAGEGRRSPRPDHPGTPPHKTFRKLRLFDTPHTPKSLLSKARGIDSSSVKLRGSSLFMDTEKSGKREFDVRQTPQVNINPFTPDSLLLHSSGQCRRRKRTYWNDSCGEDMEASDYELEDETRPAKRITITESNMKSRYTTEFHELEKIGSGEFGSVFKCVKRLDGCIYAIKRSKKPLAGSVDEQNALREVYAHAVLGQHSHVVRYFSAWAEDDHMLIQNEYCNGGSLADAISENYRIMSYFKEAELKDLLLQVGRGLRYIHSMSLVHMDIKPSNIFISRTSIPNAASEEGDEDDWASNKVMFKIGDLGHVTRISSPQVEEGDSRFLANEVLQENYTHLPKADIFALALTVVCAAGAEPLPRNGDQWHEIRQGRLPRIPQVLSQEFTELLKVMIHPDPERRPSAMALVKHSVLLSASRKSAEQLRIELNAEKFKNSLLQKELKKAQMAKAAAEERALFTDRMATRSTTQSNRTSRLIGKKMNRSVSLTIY
T6 sequence (Q96SW2 whole entry): as the sequence (Q96SW2 whole entry) above
T6 sequence (Q16531 whole entry partner): as the sequence (Q16531 whole entry partner) above

[3] = system: Human multiple myeloma cell (MM.1S); experiment: Tumor cell proliferation inhibition (CellTiter-Meiluncell luminescent cell viability assay); details: for inhibition at 0.01 µM / inhibition at 0.5 µM: Homo sapiens, MM1.S, 96 h; for inhibition at 0.01 µM: read-out: Inhibition Rate at 10 nM (%); for Inhibition Rate at 500 nM (%): MM.1S, 96 hours; for inhibition at 0.5 µM: read-out: Inhibition Rate at 500 nM (%)
[4] = Western blot, 24 hours of compound treatment, compounds tested at 50 nM and 500 nM (concentration for the table not stated)
[5] = 24 hours treatment, compounds at 50 nM and 500 nM (concentration behind the class not stated)

T1 sequence (Q96SW2 whole entry): as the sequence (Q96SW2 whole entry) above

| Compound | inhibition at 0.5 µM [1] [%] | inhibition at 2 µM [1] [%] | inhibition at 0.01 µM [2] [%] | inhibition at 0.5 µM [2] [%] | GSPT1 substrate protein remaining % (GSPT1; [4]) | CK1α substrate protein remaining % (CK1α; [4]) | IKZF2 substrate protein remaining % (IKZF2; [4]) | IKZF 1 substrate protein remaining % (IKZF1; [4]) | IKZF3 substrate protein remaining % (IKZF3; [4]) | Wee1 substrate protein remaining % (WEE1; [4]) | inhibition at 0.01 µM [3] [%] | Inhibition Rate at 500 nM (%) [3] | inhibition at 0.5 µM [3] [%] | GSPT1 substrate protein remaining % (GSPT1; [5]) | CK1α substrate protein remaining % (CK1α; [5]) | IKZF2 substrate protein remaining % (IKZF2; [5]) | IKZF 1 substrate protein remaining % (IKZF1; [5]) | IKZF3 substrate protein remaining % (IKZF3; [5]) | Wee1 substrate protein remaining % (WEE1; [5]) |
| --- | --- | --- | --- | --- | --- | --- | --- | --- | --- | --- | --- | --- | --- | --- | --- | --- | --- | --- | --- |
| O=C1CCC(N2Cc3cc(CN4C5CCC4CN(C(c4ccccc4)c4ccccc4)C5)ccc3C2=S)C(=O)N1 (stereo not drawn) [GT-07850, 3-(5-((3-benzhydryl-3,8-diazabicyclo[3.2.1]octan-8-yl)methyl)-1-thioxoisoindolin-2-yl)piperidine-2,6-dione] | 40 to 53 | 80 to 100 | 40 to 60 | 40 to 60 | A (0% ≤ substrate protein remaining % ≤ 80%) | B (80%< substrate protein remaining %≤ 100%) | A (0% ≤ substrate protein remaining % ≤ 80%) | B (80%< substrate protein remaining %≤ 100%) | B (80%< substrate protein remaining %≤ 100%) | A (0% ≤ substrate protein remaining % ≤ 80%) | 30 to 40 | la7 | – | – | – | – | – | – | – |
| O=C1CCC(N2Cc3cc(CN4CCN(c5c(F)c(F)nc(F)c5F)CC4)ccc3C2=S)C(=O)N1 (stereo not drawn) [GT-09250, 3-(5-((4-(perfluoropyridin-4-yl)piperazin-1-yl)methyl)-1-thioxoisoindolin-2-yl)piperidine-2,6-dione] | 60 to 80 | 80 to 100 | 30 to 40 | 40 to 60 | – | – | – | – | – | – | 30 to 40 | la7 | – | – | – | – | – | – | – |
| O=C1CCC(N2Cc3c(CN4CCC(c5ccon5)CC4)cccc3C2=S)C(=O)N1 (stereo not drawn) [GT-08817, 3-(4-((4-(isoxazol-3-yl)piperidin-1-yl)methyl)-1-thioxoisoindolin-2-yl)piperidine-2,6-dione] | 53 to 60 | 80 to 100 | 40 to 60 | 30 to 40 | B (80%< substrate protein remaining %≤ 100%) | B (80%< substrate protein remaining %≤ 100%) | B (80%< substrate protein remaining %≤ 100%) | B (80%< substrate protein remaining %≤ 100%) | B (80%< substrate protein remaining %≤ 100%) | A (0% ≤ substrate protein remaining % ≤ 80%) | 20 to 30 | – | 40 to 50 | – | – | – | – | – | – |
| O=C1CCC(N2Cc3cc(CN4CCN(c5c[nH]c6ncccc56)CC4)ccc3C2=S)C(=O)N1 (stereo not drawn) [GT-09261, 3-(5-((4-(1H-pyrrolo[2,3-b]pyridin-3-yl)piperazin-1-yl)methyl)-1-thioxoisoindolin-2-yl)piperidine-2,6-dione] | 53 to 60 | 80 to 100 | 40 to 60 | 40 to 60 | – | – | – | – | – | – | 40 to 50 | – | 40 to 50 | A (0% ≤ substrate protein remaining % ≤ 80%) | B (80%< substrate protein remaining %≤ 100%) | B (80%< substrate protein remaining %≤ 100%) | B (80%< substrate protein remaining %≤ 100%) | B (80%< substrate protein remaining %≤ 100%) | B (80%< substrate protein remaining %≤ 100%) |
| O=C1CCC(N2Cc3cc(CN4CCN(c5cccc(Cl)n5)CC4)ccc3C2=S)C(=O)N1 (stereo not drawn) [GT-09215, 3-(5-((4-(6-chloropyridin-2-yl)piperazin-1-yl)methyl)-1-thioxoisoindolin-2-yl)piperidine-2,6-dione] | 60 to 80 | 80 to 100 | 40 to 60 | 80 to 100 | A (0% ≤ substrate protein remaining % ≤ 80%) | B (80%< substrate protein remaining %≤ 100%) | B (80%< substrate protein remaining %≤ 100%) | B (80%< substrate protein remaining %≤ 100%) | B (80%< substrate protein remaining %≤ 100%) | B (80%< substrate protein remaining %≤ 100%) | 30 to 40 | – | 50 to 60 | – | – | – | – | – | – |
| O=C1CCC(N2Cc3cc(CN4CCCN(c5cccc(Cl)c5Cl)CC4)ccc3C2=S)C(=O)N1 (stereo not drawn) [GT-08481, 3-(5-((4-(2,3-dichlorophenyl)-1,4-diazepan-1-yl)methyl)-1-thioxoisoindolin-2-yl)piperidine-2,6-dione] | 60 to 80 | 80 to 100 | 18 to 25 | 60 to 80 | A (0% ≤ substrate protein remaining % ≤ 80%) | B (80%< substrate protein remaining %≤ 100%) | B (80%< substrate protein remaining %≤ 100%) | B (80%< substrate protein remaining %≤ 100%) | B (80%< substrate protein remaining %≤ 100%) | B (80%< substrate protein remaining %≤ 100%) | 30 to 40 | – | 70 to 80 | – | – | – | – | – | – |
| O=C1CCC(N2Cc3cc(CN4CCN(c5c(Cl)cncc5Br)CC4)ccc3C2=S)C(=O)N1 (stereo not drawn) [GT-09264, 3-(5-((4-(3-bromo-5-chloropyridin-4-yl)piperazin-1-yl)methyl)-1-thioxoisoindolin-2-yl)piperidine-2,6-dione] | 80 to 100 | 80 to 100 | 30 to 40 | 40 to 60 | – | – | – | – | – | – | 30 to 40 | – | 40 to 50 | A (0% ≤ substrate protein remaining % ≤ 80%) | B (80%< substrate protein remaining %≤ 100%) | B (80%< substrate protein remaining %≤ 100%) | B (80%< substrate protein remaining %≤ 100%) | B (80%< substrate protein remaining %≤ 100%) | B (80%< substrate protein remaining %≤ 100%) |
| O=C1CCC(N2Cc3c(CN4C5CCC4CN(c4cccc(Cl)c4Cl)C5)cccc3C2=S)C(=O)N1 (stereo not drawn) [GT-08471, 3-(4-((3-(2,3-dichlorophenyl)-3,8-diazabicyclo[3.2.1]octan-8-yl)methyl)-1-thioxoisoindolin-2-yl)piperidine-2,6-dione] | 30 to 40 | 60 to 80 | 40 to 60 | 40 to 60 | A (0% ≤ substrate protein remaining % ≤ 80%) | B (80%< substrate protein remaining %≤ 100%) | B (80%< substrate protein remaining %≤ 100%) | B (80%< substrate protein remaining %≤ 100%) | B (80%< substrate protein remaining %≤ 100%) | B (80%< substrate protein remaining %≤ 100%) | 40 to 50 | – | 40 to 50 | – | – | – | – | – | – |
| O=C1CCC(N2Cc3c(CN4CCN(c5cc(Cl)ccc5Cl)CC4)cccc3C2=S)C(=O)N1 (stereo not drawn) [GT-08501, 3-(4-((4-(2,5-dichlorophenyl)piperazin-1-yl)methyl)-1-thioxoisoindolin-2-yl)piperidine-2,6-dione] | 30 to 40 | 53 to 60 | 40 to 60 | 40 to 60 | A (0% ≤ substrate protein remaining % ≤ 80%) | B (80%< substrate protein remaining %≤ 100%) | A (0% ≤ substrate protein remaining % ≤ 80%) | A (0% ≤ substrate protein remaining % ≤ 80%) | B (80%< substrate protein remaining %≤ 100%) | A (0% ≤ substrate protein remaining % ≤ 80%) | 50 to 60 | – | 60 to 70 | – | – | – | – | – | – |
| O=C1CCC(N2Cc3c(CN4CC=C(c5cccc6c(F)cccc56)CC4)cccc3C2=S)C(=O)N1 (stereo not drawn) [GT-08856, 3-(4-((4-(5-fluoronaphthalen-1-yl)-3,6-dihydropyridin-1(2H)-yl)methyl)-1-thioxoisoindolin-2-yl)piperidine-2,6-dione] | 30 to 40 | 53 to 60 | 40 to 60 | 40 to 60 | – | – | – | – | – | – | 20 to 30 | – | 40 to 50 | – | – | – | – | – | – |

Source: patent publication EP4745135A1 (Gluetacs Therapeutics (Shanghai) Co., Ltd., priority 2023, dated 2025)
